In patent EP4722213A1, “NITROGEN-CONTAINING FUNCTIONAL GROUP-SUBSTITUTED PYRIDAZINOPYRIDONE DERIVATIVE AND USE THEREOF” (Sichuan Huiyu Pharmaceutical Co., Ltd., priority 2023, dated 2024):
pIC50: −log10 of the molar value.

Columns and labels:
[1] = system: NCI-H358 non-small cell lung cancer cells; test: Inhibition of NCI-H358 cell proliferation (CellTiter-Glo 3D, 7 days); format: cell-based; details: Homo sapiens, NCI-H358, 168 h, 3D microspheres, read-out: Inhibitory activity against NCI-H358 cell proliferation (IC50)
How it was run: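 NCI-H358 cells at 2000/well in ultra-low attachment plates grown overnight into spheroids, then exposed to 8-point 5-fold compound dilutions in RPMI-1640/10% FBS for 7 days at 37 °C. Viability by CellTiter-Glo 3D luminescence; inhibition relative to no-inhibitor and cell-free controls.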

[2] = Rat liver microsomal metabolic stability; format: in vitro ADME; details: rat liver microsomes
How it was run: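 Rat liver microsomes (1 mg/mL working solution) with test compound (working solution 100 µM) were pre-incubated 5 min at 37 °C, then started with NADPH (4.0 mM working solution). Residual compound measured by LC-MS/MS over time. T1/2 taken from first-order decay, scaled to CLint and hepatic CL with fu = 1.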

CYP2C19 = biological target: T1, CYP2C19 (Homo sapiens, UniProt P33261); test: Inhibition of hepatic drug-metabolizing enzymes in human liver microsomes; format: in vitro ADME; details: human liver microsomes; read-out: Inhibitory activity on drug-metabolizing enzymes (IC50, µM) CYP2C19
T1 construct: human liver microsomes were used as the CYP450 enzyme source; from tissue; host or cells: human liver microsomes
T1 sequence (P33261 whole entry): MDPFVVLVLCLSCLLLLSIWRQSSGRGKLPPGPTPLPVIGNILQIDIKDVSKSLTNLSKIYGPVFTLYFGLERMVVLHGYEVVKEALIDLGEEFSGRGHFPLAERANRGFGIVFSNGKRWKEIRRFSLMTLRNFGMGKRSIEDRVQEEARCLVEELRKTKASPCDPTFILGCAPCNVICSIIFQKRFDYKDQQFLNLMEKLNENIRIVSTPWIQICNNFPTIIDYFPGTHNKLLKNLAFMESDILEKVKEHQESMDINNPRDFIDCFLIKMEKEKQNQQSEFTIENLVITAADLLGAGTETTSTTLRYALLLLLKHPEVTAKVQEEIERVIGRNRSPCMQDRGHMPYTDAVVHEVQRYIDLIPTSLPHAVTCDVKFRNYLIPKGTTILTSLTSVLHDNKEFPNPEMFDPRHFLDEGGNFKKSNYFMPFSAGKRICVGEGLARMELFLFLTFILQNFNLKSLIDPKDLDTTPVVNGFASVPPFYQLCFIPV
Excerpt: (§1) The main site of drug metabolism is the liver, and the main component of the mixed-function oxidase system present in the liver is the CYP450 enzyme. This enzyme system causes most clinically observed drug-drug interactions, which in turn leads to an increased incidence of adverse drug reactions. CYP450 is a group of supergene family composed of many isozymes, wherein CYP3A4 acts as a major metabolizing enzyme and is involved in the metabolism of nearly half of clinically used drugs. Similarly, CYP2C9 and CYP2C19 also act as important metabolizing enzymes and are involved in the metabolism of various drugs clinically. Therefore, evaluating the risk of drug-drug interactions by testing the inhibitory activity of compounds on CYP450 enzymes at an early stage can improve the safety of medication use.
(§2) In the present disclosure, human liver microsomes were used as the CYP450 enzyme source. The specific probe substrates for each CYP isoenzyme (wherein CYP3A4 used two substrates, midazolam and testosterone, denoted as CYP3A4-M and CYP3A4-T respectively) were incubated with a series of concentrations of the test compound in the presence of the cofactor NADPH. The production amount of metabolites of probe substrates in the incubation system was determined by LC-MS/MS, and the IC50 values of the test compound against each CYP450 enzyme subtype were calculated to evaluate its inhibitory effect on each CYP450 enzyme subtype. During the experiment, 49 µL of PBS, 50 µL of probe substrate, and 50 µL of human liver microsome working solution were sequentially added to the incubation system, followed by the addition of 1 µL of the test compound working solution at each concentration, and the mixture was mixed well. After pre-incubation at 37°C for 5 min, 50 µL of NADPH was added to initiate the reaction. After incubation for the corresponding time, an appropriate amount of ice-cold acetonitrile containing an internal standard was added to terminate the reaction. The mixture was vortexed to mix well, centrifuged, and the supernatant was taken. The supernatant was injected into LC-MS/MS to determine the production amount of metabolites of the probe substrate. Taking the enzyme activity at the 0-concentration point (characterized by the production amount of metabolites) as 100%, the percentage of residual enzyme activity of metabolites at different concentrations of the test compound was calculated. IC50 was calculated by the residual enzyme activity using Graphpad Prism software.

CYP2C9 = biological target: T2, CYP2C9 (Homo sapiens, UniProt P11712); test: as above; format: in vitro ADME; details: human liver microsomes; read-out: Inhibitory activity on drug-metabolizing enzymes (IC50, µM) CYP2C9
T2 construct: human liver microsomes were used as the CYP450 enzyme source; from tissue; host or cells: human liver microsomes
T2 sequence (P11712 whole entry): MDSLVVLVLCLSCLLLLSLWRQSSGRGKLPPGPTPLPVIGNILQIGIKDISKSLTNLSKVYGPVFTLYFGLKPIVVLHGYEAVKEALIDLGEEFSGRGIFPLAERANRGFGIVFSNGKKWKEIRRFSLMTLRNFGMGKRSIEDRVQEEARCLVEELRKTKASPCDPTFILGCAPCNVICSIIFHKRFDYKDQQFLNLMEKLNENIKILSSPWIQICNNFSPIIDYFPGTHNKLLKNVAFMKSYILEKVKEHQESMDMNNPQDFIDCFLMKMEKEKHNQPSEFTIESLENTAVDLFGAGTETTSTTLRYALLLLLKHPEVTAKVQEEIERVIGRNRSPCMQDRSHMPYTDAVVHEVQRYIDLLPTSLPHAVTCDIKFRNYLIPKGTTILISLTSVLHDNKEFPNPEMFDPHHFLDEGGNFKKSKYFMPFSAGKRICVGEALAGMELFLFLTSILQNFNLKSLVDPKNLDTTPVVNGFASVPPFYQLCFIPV
Excerpt: as §1, §2

## C[C@@H](Nc1nnc(N2CCN(C(C)(C)C)CC2)c2cc(=O)n(C3(C)CC3)cc12)c1cccc(C(F)F)c1F.O=CO [Example 222, (R)-1-(4-(tert-butyl)piperazin-1-yl)-4-((1-(3-(difluoromethyl)-2-fluorophenyl)ethyl)amino)-6-(1-methylcyclopropyl) pyrido[3,4-d]pyridazin-7(6H)-one formate]
[1]
  pIC50: 7.48
[2]; NADPH, 37°C
  half-life at 1 µM: 3.63 h
[2]; calculated from T1/2, fu defaulted to 1, read-out: CL(liver)
  CLint scaled at 1 µM: 9.47 mL/min/kg
CYP2C19
  IC50: > 10 µM
CYP2C9
  IC50: > 10 µM
